pIC50: −log10 of the molar value.
What was measured:
VEGFR2, unphosphorylated = VEGFR2, unphosphorylated (Homo sapiens (Human), UniProt P35968); assay: VEGFR ADP GLO Assay; format: biochemical
[1] = biological target: Tb-labeled inactive PDGFRβ (Homo sapiens (Human), UniProt P09619); assay: PDGFRβ LanthaScreen Assay; format: binding; details: read-out: PDGFR Lantha IC50
PDGFRβ = PDGFRβ (Rattus norvegicus (Rat), UniProt Q05030); assay: PDGFRβ Cellular Assay (PDGFRb P-Y751 HTRF in A10 cells stimulated with PDGF-BB); format: cell-based; details: read-out: PDGFR Cellular IC50
Sequence of PDGFRβ (Q05030 32-1097): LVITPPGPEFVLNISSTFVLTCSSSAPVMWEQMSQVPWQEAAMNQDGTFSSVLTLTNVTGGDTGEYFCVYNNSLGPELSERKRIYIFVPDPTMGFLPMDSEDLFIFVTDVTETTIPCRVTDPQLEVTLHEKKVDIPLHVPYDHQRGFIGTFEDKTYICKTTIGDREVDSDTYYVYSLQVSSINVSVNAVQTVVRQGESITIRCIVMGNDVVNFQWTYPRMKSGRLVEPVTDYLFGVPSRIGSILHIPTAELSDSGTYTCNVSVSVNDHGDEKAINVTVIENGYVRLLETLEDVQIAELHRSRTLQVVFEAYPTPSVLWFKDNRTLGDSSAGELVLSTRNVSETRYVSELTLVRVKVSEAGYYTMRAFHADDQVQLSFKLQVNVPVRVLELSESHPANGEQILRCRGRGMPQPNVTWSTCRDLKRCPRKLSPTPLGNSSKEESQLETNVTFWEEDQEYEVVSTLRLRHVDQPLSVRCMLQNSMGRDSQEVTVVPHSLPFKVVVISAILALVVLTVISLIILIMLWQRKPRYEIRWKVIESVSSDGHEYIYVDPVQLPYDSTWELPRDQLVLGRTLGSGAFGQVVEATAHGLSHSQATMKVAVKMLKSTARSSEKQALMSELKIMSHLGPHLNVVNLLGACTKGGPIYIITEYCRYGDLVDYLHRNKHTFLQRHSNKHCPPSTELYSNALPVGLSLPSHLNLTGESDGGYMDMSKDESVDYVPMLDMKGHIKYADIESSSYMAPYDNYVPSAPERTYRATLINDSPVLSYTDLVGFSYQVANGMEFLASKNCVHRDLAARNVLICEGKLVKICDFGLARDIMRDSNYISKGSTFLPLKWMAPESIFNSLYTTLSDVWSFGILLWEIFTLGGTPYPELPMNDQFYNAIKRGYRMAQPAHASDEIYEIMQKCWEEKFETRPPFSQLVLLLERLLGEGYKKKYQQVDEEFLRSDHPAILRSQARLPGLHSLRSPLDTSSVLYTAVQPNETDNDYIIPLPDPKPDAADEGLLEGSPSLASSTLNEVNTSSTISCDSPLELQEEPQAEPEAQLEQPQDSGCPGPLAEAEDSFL
Summary of the method: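 Rat A10 cells, plated overnight, were treated with compound for 3 hours, then stimulated with PDGF-BB (working stock 100 ng/mL in 10% FBS medium). After lysis, PDGFRβ P-Y751 was detected by HTRF.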

Sequence of Tb-labeled inactive PDGFRβ (P09619 33-1106): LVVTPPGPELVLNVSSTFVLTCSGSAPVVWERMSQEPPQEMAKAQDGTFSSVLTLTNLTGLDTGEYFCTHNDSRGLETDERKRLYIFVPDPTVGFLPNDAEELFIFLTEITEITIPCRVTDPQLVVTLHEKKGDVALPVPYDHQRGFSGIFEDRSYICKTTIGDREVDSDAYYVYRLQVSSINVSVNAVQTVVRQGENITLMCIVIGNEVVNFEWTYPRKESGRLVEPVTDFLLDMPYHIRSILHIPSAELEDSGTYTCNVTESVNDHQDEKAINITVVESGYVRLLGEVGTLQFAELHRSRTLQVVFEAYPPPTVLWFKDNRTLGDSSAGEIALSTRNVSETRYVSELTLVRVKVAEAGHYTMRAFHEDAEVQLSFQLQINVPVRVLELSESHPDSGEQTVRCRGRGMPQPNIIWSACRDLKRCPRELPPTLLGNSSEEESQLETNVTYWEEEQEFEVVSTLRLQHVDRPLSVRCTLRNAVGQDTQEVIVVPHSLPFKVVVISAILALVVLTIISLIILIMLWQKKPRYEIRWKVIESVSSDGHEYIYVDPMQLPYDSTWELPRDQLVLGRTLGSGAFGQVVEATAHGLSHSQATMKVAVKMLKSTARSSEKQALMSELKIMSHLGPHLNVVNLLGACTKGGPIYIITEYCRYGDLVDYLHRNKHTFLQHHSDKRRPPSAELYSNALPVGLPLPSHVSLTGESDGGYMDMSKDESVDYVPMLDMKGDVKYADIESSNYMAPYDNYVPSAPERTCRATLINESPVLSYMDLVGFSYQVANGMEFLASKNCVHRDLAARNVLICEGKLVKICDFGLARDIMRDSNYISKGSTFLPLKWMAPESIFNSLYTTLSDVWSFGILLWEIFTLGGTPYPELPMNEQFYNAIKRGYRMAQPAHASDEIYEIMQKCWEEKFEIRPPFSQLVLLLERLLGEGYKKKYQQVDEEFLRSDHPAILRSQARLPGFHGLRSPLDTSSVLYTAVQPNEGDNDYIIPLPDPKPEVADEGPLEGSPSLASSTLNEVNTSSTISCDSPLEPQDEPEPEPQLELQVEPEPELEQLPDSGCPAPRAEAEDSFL
Sequence of VEGFR2, unphosphorylated (P35968 20-1356): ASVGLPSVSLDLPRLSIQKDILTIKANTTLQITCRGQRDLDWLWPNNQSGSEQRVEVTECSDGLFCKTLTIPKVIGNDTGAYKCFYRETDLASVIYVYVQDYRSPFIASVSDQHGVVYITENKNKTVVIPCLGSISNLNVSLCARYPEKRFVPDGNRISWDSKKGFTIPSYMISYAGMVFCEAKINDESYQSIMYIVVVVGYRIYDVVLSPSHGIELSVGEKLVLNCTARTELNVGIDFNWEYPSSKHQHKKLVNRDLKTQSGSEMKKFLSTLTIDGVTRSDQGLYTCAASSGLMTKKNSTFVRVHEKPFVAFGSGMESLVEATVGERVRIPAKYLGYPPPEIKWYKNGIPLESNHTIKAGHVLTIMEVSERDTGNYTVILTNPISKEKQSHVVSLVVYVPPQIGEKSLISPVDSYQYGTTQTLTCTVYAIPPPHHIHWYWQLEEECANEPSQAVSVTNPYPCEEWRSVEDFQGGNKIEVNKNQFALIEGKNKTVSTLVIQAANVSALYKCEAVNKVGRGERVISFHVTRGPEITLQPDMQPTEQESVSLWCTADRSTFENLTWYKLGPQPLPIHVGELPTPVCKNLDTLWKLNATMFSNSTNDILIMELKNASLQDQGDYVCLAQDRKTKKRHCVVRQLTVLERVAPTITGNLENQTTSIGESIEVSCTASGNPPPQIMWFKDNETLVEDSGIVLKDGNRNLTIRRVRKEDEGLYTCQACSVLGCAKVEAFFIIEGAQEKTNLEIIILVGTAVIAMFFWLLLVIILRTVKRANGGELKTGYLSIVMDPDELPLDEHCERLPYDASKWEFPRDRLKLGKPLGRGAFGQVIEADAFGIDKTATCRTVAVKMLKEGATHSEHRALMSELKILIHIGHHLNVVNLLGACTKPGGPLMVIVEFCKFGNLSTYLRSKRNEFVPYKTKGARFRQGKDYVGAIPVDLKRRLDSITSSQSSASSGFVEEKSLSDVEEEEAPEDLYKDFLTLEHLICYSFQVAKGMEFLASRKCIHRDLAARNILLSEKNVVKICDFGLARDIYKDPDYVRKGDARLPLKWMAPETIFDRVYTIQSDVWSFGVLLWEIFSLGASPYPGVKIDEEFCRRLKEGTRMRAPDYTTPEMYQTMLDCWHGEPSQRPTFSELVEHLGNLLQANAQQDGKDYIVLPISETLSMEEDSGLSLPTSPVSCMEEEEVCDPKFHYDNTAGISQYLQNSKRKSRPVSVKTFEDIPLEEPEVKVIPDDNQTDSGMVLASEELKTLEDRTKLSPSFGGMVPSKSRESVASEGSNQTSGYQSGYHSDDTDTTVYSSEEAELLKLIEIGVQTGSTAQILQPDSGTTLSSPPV

Row | SMILES | pIC50 (VEGFR2, unphosphorylated) | pIC50 [1] | pIC50 (PDGFRβ)
1 | Cc1ncc(NC(=O)NCC2CCN(C(C)C)CC2)cc1NC(=O)c1cnn2cc(-c3cnn(C)c3)sc12 [Example 109, N-(5-(3-((1-isopropylpiperidin-4-yl)methyl)ureido)-2-methylpyridin-3-yl)-2-(1-methyl-1H-pyrazol-4-yl)pyrazolo[5,1-b]thiazole-7-carboxamide] | < 5.12 | 5.72 | < 5.52
2 | Cc1ncc(C(=O)NCCN2CC(C)(C)C2)cc1NC(=O)c1cnn2cc(-c3cn(C)cn3)sc12 [Example 161] | < 5.12 | 7.92 | 6.91
3 | Cc1ncc(C(=O)NCCN2CC3CCC2CC3)cc1NC(=O)c1cnn2cc(-c3cnn(C)c3C)sc12 [Example 171, N-(5-((2-(2-azabicyclo[2.2.2]octan-2-yl)ethyl)carbamoyl)-2-methylpyridin-3-yl)-2-(1,5-dimethyl-1H-pyrazol-4-yl)pyrazolo[5,1-b]thiazole-7-carboxamide] | < 5.12 | 8.59 | 7.46
4 | Cc1ncc(C(=O)NCCN2CCCC2(C)C)cc1NC(=O)c1cnn2cc(-c3cnn(C4CC4)c3)sc12 [Example 6, 2-(1-cyclopropyl-1H-pyrazol-4-yl)-N-(5-((2-(2,2-dimethylpyrrolidin-1-yl)ethyl)carbamoyl)-2-methylpyridin-3-yl)pyrazolo[5,1-b]thiazole-7-carboxamide] | < 5.12 | 8.33 | 8.11
5 | COCCn1cc(-c2cn3ncc(C(=O)Nc4cc(NC(=O)CCN5CC6CCC5CC6)cnc4C)c3s2)cn1 [Example 100, N-(5-(3-(2-azabicyclo[2.2.2]octan-2-yl)propanamido)-2-methylpyridin-3-yl)-2-(1-(2-methoxyethyl)-1H-pyrazol-4-yl)pyrazolo[5,1-b]thiazole-7-carboxamide] | < 5.12 | 8.12 | 7.48
6 | Cc1ncc(C(=O)NCCN2CCC3(CCC3)C2)cc1NC(=O)c1cnn2cc(-c3cnn(C)c3)sc12 [Example 113, N-(5-((2-(6-azaspiro[3.4]octan-6-yl)ethyl)carbamoyl)-2-methylpyridin-3-yl)-2-(1-methyl-1H-pyrazol-4-yl)pyrazolo[5,1-b]thiazole-7-carboxamide] | < 5.12 | 8.85 | 7.94
7 | Cc1ncc(C(=O)NCCN2CCCC2(C)C)cc1NC(=O)c1cnn2cc(-c3ccc(=O)[nH]n3)sc12 [Example 141, N-(5-((2-(2,2-dimethylpyrrolidin-1-yl)ethyl)carbamoyl)-2-methylpyridin-3-yl)-2-(6-oxo-1,6-dihydropyridazin-3-yl)pyrazolo[5,1-b]thiazole-7-carboxamide] | < 5.12 | 7.73 | < 5.52
8 | Cc1ncc(C(=O)NCCN2CC3COCC3C2)cc1NC(=O)c1cnn2cc(-c3cnn(C)c3)sc12 (stereo not drawn) [Example 112, 2-(1-methyl-1H-pyrazol-4-yl)-N-(2-methyl-5-((2-(tetrahydro-1H-furo[3,4-c]pyrrol-5 (3H)-yl)ethyl)carbamoyl)pyridin-3-yl)pyrazolo[5,1-b]thiazole-7-carboxamide] | < 5.12 | 7.90 | 6.80
9 | Cc1ncc(C(=O)NCCN2CCCC(F)(F)C2)cc1NC(=O)c1cnn2cc(-c3cnn(C)c3)sc12 [Example 123, N-(5-((2-(3,3-difluoropiperidin-1-yl)ethyl)carbamoyl)-2-methylpyridin-3-yl)-2-(1-methyl-1H-pyrazol-4-yl)pyrazolo[5,1-b]thiazole-7-carboxamide] | < 5.12 | 8.57 | 8.11
10 | Cc1ncc(C(=O)NCCN2CCC(F)(F)CC2)cc1NC(=O)c1cnn2cc(-c3cnn(C)c3)sc12 [Example 119, N-(5-((2-(4,4-difluoropiperidin-1-yl)ethyl)carbamoyl)-2-methylpyridin-3-yl)-2-(1-methyl-1H-pyrazol-4-yl)pyrazolo[5,1-b]thiazole-7-carboxamide] | < 5.12 | 8.70 | 8.31
11 | COCCn1cc(-c2cn3ncc(C(=O)Nc4cc(C(=O)NCCN5CC6(CCC6)C5)cnc4C)c3s2)cn1 [Example 168, N-(5-((2-(2-azaspiro[3.3]heptan-2-yl)ethyl)carbamoyl)-2-methylpyridin-3-yl)-2-(1-(2-methoxyethyl)-1H-pyrazol-4-yl)pyrazolo[5,1-b]thiazole-7-carboxamide] | < 5.12 | 7.76 | 6.43
12 | Cc1ncc(C(=O)NCCN2CC3CCC2CC3)cc1NC(=O)c1cnn2cc(-c3cn(C)nc3C)sc12 [Example 178, N-(5-((2-(2-azabicyclo[2.2.2]octan-2-yl)ethyl)carbamoyl)-2-methylpyridin-3-yl)-2-(1,3-dimethyl-1H-pyrazol-4-yl)pyrazolo[5,1-b]thiazole-7-carboxamide] | < 5.12 | 8.74 | 7.73
13 | COCCn1cc(-c2cn3ncc(C(=O)Nc4cc(C(=O)NCCN5CCC(F)(F)C5)cnc4C)c3s2)cn1 [Example 167, N-(5-((2-(3,3-difluoropyrrolidin-1-yl)ethyl)carbamoyl)-2-methylpyridin-3-yl)-2-(1-(2-methoxyethyl)-1H-pyrazol-4-yl)pyrazolo[5,1-b]thiazole-7-carboxamide] | < 5.12 | 8.38 | 7.61
14 | Cc1ncc(C(=O)NCCN2CCC(F)(F)CC2)cc1NC(=O)c1cnn2cc(-c3ccncc3)sc12 [Example 154, N-(5-((2-(4,4-difluoropiperidin-1-yl)ethyl)carbamoyl)-2-methylpyridin-3-yl)-2-(pyridin-4-yl)pyrazolo[5,1-b]thiazole-7-carboxamide] | < 5.12 | 8.62 | 8.06
15 | Cc1ncc(C(=O)NCCN2CC3CCC2CC3)cc1NC(=O)c1cnn2cc(-c3ccncc3)sc12 [Example 148, N-(5-((2-(2-azabicyclo[2.2.2]octan-2-yl)ethyl)carbamoyl)-2-methylpyridin-3-yl)-2-(pyridin-4-yl)pyrazolo[5,1-b]thiazole-7-carboxamide] | < 5.12 | 8.38 | 7.54
16 | Cc1ncc(NC(=O)CCN2CCC3(CC3)C2)cc1NC(=O)c1cnn2cc(-c3cnn(C)c3)sc12 [Example 104, N-(5-(3-(5-azaspiro[2.4]heptan-5-yl)propanamido)-2-methylpyridin-3-yl)-2-(1-methyl-1H-pyrazol-4-yl)pyrazolo[5,1-b]thiazole-7-carboxamide] | < 5.12 | 8.01 | 8.04
17 | CC(=O)Nc1ccnc(-c2cn3ncc(C(=O)Nc4cc(C(=O)NCCN5CC6CCC5CC6)cnc4C)c3s2)c1 [Example 146, N-(5-((2-(2-azabicyclo[2.2.2]octan-2-yl)ethyl)carbamoyl)-2-methylpyridin-3-yl)-2-(4-acetamidopyridin-2-yl)pyrazolo[5,1-b]thiazole-7-carboxamide] | < 5.12 | 8.37 | 6.07
18 | Cc1ncc(NC(=O)CCN2CCCC2(C)C)cc1NC(=O)c1cnn2cc(-c3cnn(C)c3)sc12 [Example 10, N-(5-(3-(2,2-dimethylpyrrolidin-1-yl)propanamido)-2-methyl-pyridin-3-yl)-2-(1-methyl-1H-pyrazol-4-yl)pyrazolo[5,1-b]thiazole-7-carboxamide] | < 5.12 | 8.55 | 8.28
19 | Cc1ncc(C(=O)NCCN2CCC3(CC3)C2)cc1NC(=O)c1cnn2cc(-c3cnn(C)c3C)sc12 [Example 170, N-(5-((2-(5-azaspiro[2.4]heptan-5-yl)ethyl)carbamoyl)-2-methylpyridin-3-yl)-2-(1,5-dimethyl-1H-pyrazol-4-yl)pyrazolo[5,1-b]thiazole-7-carboxamide] | < 5.12 | 8.39 | 7.47
20 | Cc1ncc(C(=O)NCCN2CCC3(CCOC3)C2)cc1NC(=O)c1cnn2cc(-c3cnn(C)c3)sc12 (stereo not drawn) [Example 116, N-(5-((2-(2-oxa-7-azaspiro[4.4]nonan-7-yl)ethyl)carbamoyl)-2-methylpyridin-3-yl)-2-(1-methyl-1H-pyrazol-4-yl)pyrazolo[5,1-b]thiazole-7-carboxamide] | < 5.12 | 7.90 | 7.13
21 | Cc1ncc(C(=O)NCCN2CCCC23COC3)cc1NC(=O)c1cnn2cc(-c3cn(C)nc3C)sc12 [Example 176, N-(5-((2-(2-oxa-5-azaspiro[3.4]octan-5-yl)ethyl)carbamoyl)-2-methylpyridin-3-yl)-2-(1,3-dimethyl-1H-pyrazol-4-yl)pyrazolo[5,1-b]thiazole-7-carboxamide] | < 5.12 | 8.51 | 7.54
22 | Cc1ncc(C(=O)NCCN2CCC3(CC3)C2)cc1NC(=O)c1cnn2cc(-c3cnn(C)c3)sc12 [Example 118, N-(5-((2-(5-azaspiro[2.4]heptan-5-yl)ethyl)carbamoyl)-2-methylpyridin-3-yl)-2-(1-methyl-1H-pyrazol-4-yl)pyrazolo[5,1-b]thiazole-7-carboxamide] | < 5.12 | 8.15 | 7.26
23 | Cc1ncc(C(=O)NCCN2CCC3(CC3)C2)cc1NC(=O)c1cnn2cc(-c3ccccn3)sc12 [Example 160, N-(5-((2-(5-azaspiro[2.4]heptan-5-yl)ethyl)carbamoyl)-2-methylpyridin-3-yl)-2-(pyridin-2-yl)pyrazolo[5,1-b]thiazole-7-carboxamide] | < 5.12 | 8.36 | 7.60
24 | Cc1ncc(C(=O)NCCN2CC3CCC2CC3)cc1NC(=O)c1cnn2cc(-c3ccc4oc(=O)[nH]c4c3)sc12 [Example 145, N-(5-((2-(2-azabicyclo[2.2.2]octan-2-yl)ethyl)carbamoyl)-2-methylpyridin-3-yl)-2-(2-oxo-2,3-dihydrobenzo[d]oxazol-5-yl)pyrazolo[5,1-b]thiazole-7-carboxamide] | < 6.08 | 8.85 | 6.39
